{
  "source": "patent US10633397B2",
  "about": "“Substituted polycyclic pyridone derivatives and prodrugs thereof” (priority 2015, dated 2020)",
  "test": "in vivo",
  "conditions": "oral vs intravenous administration, mice or SD rats, read-out: bioavailability (BA)",
  "procedure": "Materials and Methods for Experiments to Evaluate Oral Absorption\n(1) Experimental animals: mice or SD rats were used.\n(2) Rearing condition: mice or SD rats were allowed free access to solid feed and sterilized tap water.\n(3) Setting of dosage and grouping: Oral administration and intravenous administration were performed with the predetermined dosage. Grouping was set as below. (Dosage was changed per compound)\nOral administration 1 to 30 mg/kg (n=2 to 3)\nIntravenous administration 0.5 to 10 mg/kg (n=2 to 3)\n(4) Preparation of administration solutions: Oral administration was performed as solution or suspension. Intravenous administration was performed after solubilization.\n(5) Routes of administration: Oral administration was performed mandatory into the stomach by oral sonde. […]\n(6) Evaluation items: Blood was collected serially and concentration of a compound of the present invention in plasma was measured by LC/MS/MS.\n(7) Statistical analysis: About transition of concentration of a compound of the present invention in plasma, the area under the plasma concentration versus time curve (AUC) was calculated by non-linear least-squares method program, WinNonlin (a registered trademark), and bioavailability (BA) of a compound of the present invention was calculated from AUCs of the oral administration group and the intravenous administration group. […]",
  "data": [
    {"smiles": "O=C1c2c(O)c(=O)ccn2N([C@@H]2c3ccccc3SCc3c2ccc(F)c3F)[C@@H]2COCCN12", "note": "[III-2]", "values": [
      {"measurement": "bioavailability", "result": 4.2, "unit": "%"}
    ]}
  ]
}
